Tests used:
Type in all cases: in vivo
[1] = test system: Echinochloa crus-galli; experiment: Pre-emergence herbicidal activity against ECHCG; settings: dosage 80 g/ha, scored visually after about 3 weeks vs untreated controls (100% = plants have died, 0% = like control plants); for pest or weed control at 80 g/ha: Echinochloa crus-galli, 504 h
From the text: (§1) 1. Pre-Emergence Herbicidal Action and Crop Plant Compatibility Seeds of monocotyledonous and dicotyledonous weed plants and crop plants are placed in plastic or wood fiber pots and covered with soil. The compounds of the invention, formulated in the form of wettable powders (WP) or as emulsion concentrates (EC), are then applied onto the surface of the covering soil as aqueous suspension or emulsion with addition of 0.5% additive at a water application rate of 600 l/ha (converted). After the treatment, the pots are placed in a greenhouse and kept under good growth conditions for the trial plants. After about 3 weeks, the effect of the preparations is scored visually in comparison with untreated controls as percentages. For example, 100% activity=the plants have died, 0% activity=like control plants. ECHCG: Echinochloa crus-galli HORMU: Hordeum murinum

[2] = test system: Abutilon theophrasti; experiment: Pre-emergence herbicidal activity against ABUTH; settings: dosage 80 g/ha
From the text: as §1, with “ABUTH: Abutilon theophrasti ALOMY: Alopecurus myosuroides” for “ECHCG: Echinochloa crus-galli HORMU: Hordeum murinum”

[3] = Pre-emergence treatment, summary over harmful plants; settings: 504 h, application rate of 0.08 kg of active substance or less per hectare, read-out: herbicidal action, pre-emergence treatment (very good activity)
From the text: 1. Pre-Emergence Herbicidal Action and Crop Plant Compatibility
as §1, with “Seeds” for “1. Pre-Emergence Herbicidal Action and Crop Plant Compatibility Seeds”, “plants.” for “plants. ECHCG: Echinochloa crus-galli HORMU: Hordeum murinum”
As shown by the results, compounds according to the invention such as, for example, the compounds No. I-21 and other compounds from the tables (for example I-10, I-26, I-09, I-30, I-28, I-29, I-27, I-01, I-06, I-34, I-19, I-11, I-36, I-37, I-38, I-41, I-42, I-43, I-44, I-46, I-49) have, when used for pre-emergence treatment, very good activity (80% to 100% herbicidal action) against harmful plants such as Abutilon theophrasti, Alopecurus myosuroides, Amaranthus retroflexus, Avena fatua, Echinochloa crus-galli, Hordeum murinum, Lolium rigidum, Pharbitis purpurea, Polygonum convolvulus, Setaria viridis, Stellaria media, Veronica persica and Viola tricolor at an application rate of 0.08 kg of active substance or less per hectare.

[4] = test system: Lolium rigidum; experiment: Pre-emergence herbicidal activity against LOLRI; settings: dosage 80 g/ha
From the text: as §1, with “LOLRI: Lolium rigidum PHBPU: Pharbitis purpurea” for “ECHCG: Echinochloa crus-galli HORMU: Hordeum murinum”

SMILES	pest or weed control at 80 g/ha [1]	Pre-emergence herbicidal activity against ABUTH in % [2]	pest or weed control at 80 g/ha [3]	pest or weed control at 80 g/ha ([4]; Lolium rigidum, 504 h)	Pre-emergence herbicidal activity against ECHCG in % [1]	Pre-emergence herbicidal activity against LOLRI in % [4]
COC(=O)[C@H]1C[C@@H](NC(=O)[C@@]2(C)CC(c3cc(F)cc(F)c3)=NO2)CO1 (mixture of isomers) [I-09, methyl cis-4-[[(5R)-3-(3,5-difluorophenyl)-5-methyl-4H-isoxazole-5-carbonyl]amino]tetrahydrofuran-2-carboxylate]	90%	100%	80 to 100%	–	–	–
C=C[C@]1(C(=O)N[C@H]2CO[C@@H](C(=O)OC)C2)CC(c2cc(F)cc(F)c2)=NO1 (mixture of isomers) [I-10, methyl cis-4-[[(5S)-3-(3,5-difluorophenyl)-5-vinyl-4H-isoxazole-5-carbonyl]amino]tetrahydrofuran-2-carboxylate]	100%	100%	80 to 100%	100%	–	–
COC(=O)[C@H]1C[C@@H](NC(=O)C2(C)CC(c3cc(C)cc(Br)c3)=NO2)CO1 (relative stereo) [I-04, methyl cis-4-[[3-(3-bromo-5-methylphenyl)-5-methyl-4H-isoxazole-5-carbonyl]amino]tetrahydrofuran-2-carboxylate]	–	100%	–	–	–	–
COC(=O)[C@H]1C[C@@H](NC(=O)C2(C(F)(F)F)CC(c3cc(F)cc(F)c3)=NO2)CO1 (relative stereo) [I-06, methyl cis-4-[[3-(3,5-difluorophenyl)-5-(trifluoromethyl)-4H-isoxazole-5-carbonyl]amino]tetrahydrofuran-2-carboxylate]	80%	100%	80 to 100%	–	–	–
COC(=O)[C@H]1C[C@@H](NC(=O)C2(OC)CC(c3cc(C)cc(Br)c3)=NO2)CO1 (relative stereo) [I-08, methyl cis-4-[[3-(3-bromo-5-methylphenyl)-5-methoxy-4H-isoxazole-5-carbonyl]amino]tetrahydrofuran-2-carboxylate]	–	100%	–	–	–	–
COC(=O)[C@H]1C[C@@H](NC(=O)C2(OC)CC(c3ccccc3)=NO2)CO1 (relative stereo) [I-14, methyl cis-4-[(5-methoxy-3-phenyl-4H-isoxazole-5-carbonyl)amino]tetrahydrofuran-2-carboxylate]	–	100%	–	–	–	–
C=C[C@]1(C(=O)N[C@H]2CO[C@@H](C(=O)OC)C2)CC(c2cc(F)cc(F)c2)=NO1 (single isomer, unassigned) [I-11]	–	80%	80 to 100%	–	100%	100%

From patent US11597724B2, “Herbicidally active 3-phenylisoxazoline-5-carboxamides of tetrahydro and dihydrofuran carboxylic acids and esters” (Bayer Aktiengesellschaft, priority 2017, dated 2023)
